Patent publication US4558066A, “Treatment and prevention of ocular hypertension” (priority 1984, dated 1985)
Counter-ions that a name gives are not always drawn. Blank lines part the entries; values can stand above or below the molecule they belong to.

Key:
[1] = system: intraocular pressure; experiment: Reduction of intraocular pressure in rabbits (pneuma-tonometer); type: in vivo, normal albino white New Zealand rabbits; conditions: rabbit
Description: Two groups of normal albino white New Zealand rabbits were used for this study.
Experimental group: 8 animals
At time 0, intraocular pressure of both eyes of each animal in control and experimental groups was determined.
All animals received the treatment either with saline (control group) or the tested compound (experimental group) immediately after 0 hour intraocular pressure reading. Control group received 50 μl of vehicle in both eyes. Experimental animals received 50 μl of vehicle in the left eyes and 50 μl of 1% solution of tested compound in the right eyes.
Intraocular pressure was measured at 30 minutes, 1, 2, and 4 hours.
The effects of tested drug on intraocular pressure of the rabbit was determined using a Digilab Model 30D pneuma-tonometer. Initial IOP readings were obtained in all animals after the administration of 50 μl of 0.5% Opthaine (proparacaine hydrochloride). A group of 4 rabbits served as controls and were treated with 50 μl of saline in both eyes. Eight additional rabbits received 50 μl of test drug in the right eye, and 50 μl of drug vehicle was administered in the contralateral left eye. IOP readings were made 30 minutes, 1 hours, 2 hours, and 4 hours after drug administration.
This procedure permitted the comparison of drug treated eye with the contralateral vehicle treated eye, and also with saline treated eye. For purposes of statistical analysis comparisons were made between the drug treated IOP values and vehicle treated contralateral eyes and also the saline treated IOP values.

[2] = system: intraocular pressure; experiment: Intraocular pressure in anesthetized dogs after ocular administration; type: in vivo, mongrel dogs; conditions: anesthetized dog
Description: (§1) In the present studies, the cardiovascular and intraocular pressure effects of Timoptic (Timolol) a Merck β-blocker marketed for treatment of glaucoma, and ±2-[(3,4-methylenedioxy)phenethyl]-5-[(3-carboxamido-4-hydroxy)-α-hydroxybenzyl]pyrrolidine were evaluated in anesthetized dogs to determine if the compounds exert systemic effects after ocular administration.
(§2) Mongrel dogs were anesthetized with sodium pentobarbital (36 mg/kg, i.v.). The trachea was intubated and the dog respired with room air if necessary (20 cc/kg, 16x/min). A femoral vein was cannulated for injection of drugs and a femoral artery for measurement of systolic blood pressure. Heart rate was recorded by a cardiotachometer triggered by the R-wave of a limb lead II ECG. Intraocular pressure measurements were made with a Digilab model 30-D Pneuma-Tonometer.
(§3) Timolol and ±2-[(3,4-methylenedioxy)phenethyl]-5-[(3-carboxamido-4-hydroxy)-α-hydroxybenzyl]pyrrolidine were dissolved in distilled water. Isoproterenol and norepinephrine were dissolved in normal saline.
(§4) Isoproterenol was administered i.v. at half-log interval doses from 0.0158 μg/kg to 0.5 μg/kg.

[3] = set-up: species or system mongrel dogs; conditions: dog, in vivo
Description: as §1, §2, §3, §4

[4] = system: isoproterenol responses; set-up: species or system mongrel dogs; conditions: dog, in vivo
Description: as §1, §2, §3, §4

[5] = system: norepinephrine responses; set-up: species or system mongrel dogs; conditions: dog, in vivo
Description: as §1, §2, §3, §4

[6] = system: eye; set-up: species or system mongrel dogs; conditions: dog, in vivo
[7] = cited from earlier work
[8] = topical; PDR; cited from earlier work
[9] = administered to the eye at 0.5, 1 and 2%

- Systemic effect (conclusion) [3]: modest, if any systemic effect
- Dose relation of inhibition of isoproterenol responses [4]: not dose related
- Inhibition of isoproterenol responses [4]: some inhibition
- Dose relation of inhibition of norepinephrine responses [5]: not dose related
- Inhibition of norepinephrine responses [5]: some inhibition
SMILES: NC(=O)c1cc(C(O)C2CCC(CCc3ccc4c(c3)OCO4)N2)ccc1O (racemic) [±2-[(3,4-methylenedioxy)phenethyl]-5-[(3-carboxamido-4-hydroxy)-α-hydroxybenzyl]pyrrolidine]
- Intraocular pressure, Experimental O.D. (right, treated eye) ([1]; 0 time reading before dosing of 50 μl of 1% solution (baseline), control O.D. 18.8, contralateral vehicle eye 18): 17.6 mmHg
- Effect on intraocular pressure in right (treated) eyes ([1]; 1% solution): decreased significantly intraocular pressure
- Intraocular pressure, Experimental O.D. (right, treated eye) ([1]; 50 μl of 1% solution, 30 min, control O.D. 18.3, contralateral vehicle eye 18.1): 18.9 mmHg
- Intraocular pressure, Experimental O.D. (right, treated eye) ([1]; 50 μl of 1% solution, 1 hour, control O.D. 19.5, contralateral vehicle eye 19.8): 17.1 mmHg
- Intraocular pressure, Experimental O.D. (right, treated eye) ([1]; 50 μl of 1% solution, 2 hours, control O.D. 19.8, contralateral vehicle eye 17.3): 14.4 mmHg
- Intraocular pressure, Experimental O.D. (right, treated eye) ([1]; 50 μl of 1% solution, 4 hours, control O.D. 19.8, contralateral vehicle eye 18.8): 15.5 mmHg
- Decrease of IOP relative to Timolol [2, 9]: to a lesser extent than Timolol
- Effect on intraocular pressure [2, 9]: decreased IOP
- Effect on intraocular pressure (conclusion) ([2]; at the doses tested): lowered intraocular pressure
- Baseline blood pressure compared with control dogs [3]: differed little from control dogs
- Baseline heart rate compared with control dogs [3]: differed little from control dogs
- Eye irritation [6]: no irritation to the eye

- Inhibition of i.v. (systemic) isoproterenol challenges [4]: markedly inhibited
SMILES: CC(C)(C)NC[C@H](O)COc1nsnc1N1CCOCC1 [Timolol]
- Effect on intraocular pressure ([2]; administered to the eye at 0.5%): significant decreases in intraocular pressure
- Effect on baseline blood pressure [3]: marked decreases
- Effect on baseline heart rate [3]: marked decreases
- Time post-dose to nadir of blood pressure [3]: ≤ 90 min
- Time post-dose to nadir of heart rate [3]: ≤ 90 min
- Systemic absorption following ocular administration (indicated by inhibition of isoproterenol challenges) [4]: readily absorbed systemically following ocular administration
- Effect on cardiac failure ([7]; congestive heart failure patients, ocular application): intensify cardiac failure in congestive heart failure patients
- Systemic absorption after ocular application ([7]; human, in vivo): absorbed systemically after ocular application
- Effect on bronchospasm ([7]; patients suffering from brochospastic disorders, ocular application): brochospasm in patients suffering from brochospastic disorders

SMILES: CC(C)(C)NC[C@H](O)COc1nsnc1N1CCOCC1 [timolol maleate]
- Systemic side effects when applied topically [8]: can cause bronchospastic disease, bradyarrhythmia, cardiogenic shock, cardiac failure, etc.
